# From patent US4452982A, “Process for the preparation of nitrogen-bridgehead condensed pyrimidine compounds, and pharmaceutical compositions containing them” (Chinoin Gyogyszer es Vegyeszeti Termekek Gyara R.T., priority 1979, dated 1984)
# Legend:
# allergic reactions = experiment: PCA test-method (Ovary), antiallergic activity; type: in vivo; conditions: for ED50: iv
# Procedure: The test is carried out by the PCA test-method (Ovary: J. Immun. 81, 355 (1958)) and the Church-test (British J. Pharm. 46, 56-66 (1972); Immunology 29, 527-534 (1975)) and for comparison disodium chromoglycate is used.
# allergic symptoms = conditions: antiasthmatic agent, cited from earlier work
Compound,ED50 (allergic reactions) [µmol/kg],"oral activity / route of effectiveness (allergic reactions; oral vs. intravenous, conclusion from Table I)",effect by inhaler (background statement) (allergic symptoms; inhaler),oral activity (background statement) (allergic symptoms; orally)
O=C(O)c1cc(=O)c2c(OCC(O)COc3cccc4oc(C(=O)O)cc(=O)c34)cccc2o1 [disodium chromoglycolate],1,effective only when administered intravenously,produces the desired effect only by using an inhaler,not active orally
"Cc1ccccc1NC1=CCC(C)n2c1ncc(C(=O)O)c2=O (stereo not drawn) [6-methyl-9-(2-methylphenylamino)-4-oxo-6,7-dihydro-4H--pyrido[1,2-a]pyrimidine-3-carboxylic acid]",5.4,,,
"CC1CC=C(Nc2ccccc2)c2ncc(C(=O)O)c(=O)n21 (stereo not drawn) [9-anilino-6-methyl-4-oxo-6,7-dihydro-4H-pyrido[1,2-a]pyrimidine-3-carboxylic acid]",1.3,,,
